Key:
TRPM8 [1] = molecular target: T1, TRPM8 (Rattus norvegicus, UniProt Q8R455); settings: cited from earlier work
[2] = tested on: overactive bladder induced by acetic acid; test: Confirmation test of elongation action of micturition interval of overactive bladder induced by acetic acid; type: in vivo, female SD rats; settings: Rattus norvegicus, iv, interval before administration = 100%
Protocol: Urethane (sigma) was dissolved into pure water by 25% w/v, and female SD rats were anesthetized with 1.25 g/kg urethane by subcutaneous administration. Cannulae were placed in femoral vein and bladder, and the bladder cannula was connected to both a syringe pump and a pressure transducer. Detrusor overactivity was induced by intravesical infusion of 0.25% acetic acid in saline at a rate of 3.6 mL/h, and intravesical pressure was monitored via pressure transducer concurrently. Test compounds were dissolved into a mixture of dimethylacetamide and saline (20:80), and were administered via the femoral vein. When an average of the three micturition interval before administration was taken as 100%, an average of the three micturition interval after administration was calculated as Elongation of micturition interval (%) Dose and results are shown in tables 46 and 47.

TRPM8 [3] = molecular target: T1, TRPM8; test: Confirmation test of inhibitory effects on icilin-induced wet-dog shakes; type: in vivo, female SD rats; parameters: test compounds were orally administered to female SD rats; from tissue; host or cells: whole animal (female SD rats), endogenous channel; settings: icilin 1 mg/kg i.p. after 1 hour, shakes counted for 5 minutes
Protocol: Test compounds were dissolved in dimethylacetamide (wako), and 0.5% methylcellulose solution (wako) was added to make the solution or suspension containing 5% of dimethylacetamide. At a dose of 3 or 10 mg/kg/5 mL of test compounds were orally administered to female SD rats. After 1 hour, wet-dog shakes were induced by the intrapenitoneal injection of icilin (1 mg/kg) which was dissolved in polyethylene glycol 400 (wako). From 5 minutes after the administration of icilin, wet-dog shakes were counted for 5 minutes. For control example, vehicle (a mixture of dimethylacetamide (wako): 0.5% methylcellulose (wako)=5:95) was administrated similarly, and the number of wet-dog shakes was counted in the same manner. A percent inhibition of wet-dog shakes by test compound was calculated from the following formula: [1-(test compound wet-dog shake count/vehicle wet-dog shake count)]×100.

[4] = 1 mg/kg/2 ml via the femoral vein
[5] = 1 mg/kg/ml via the femoral vein

T1 sequence (Q8R455 whole entry): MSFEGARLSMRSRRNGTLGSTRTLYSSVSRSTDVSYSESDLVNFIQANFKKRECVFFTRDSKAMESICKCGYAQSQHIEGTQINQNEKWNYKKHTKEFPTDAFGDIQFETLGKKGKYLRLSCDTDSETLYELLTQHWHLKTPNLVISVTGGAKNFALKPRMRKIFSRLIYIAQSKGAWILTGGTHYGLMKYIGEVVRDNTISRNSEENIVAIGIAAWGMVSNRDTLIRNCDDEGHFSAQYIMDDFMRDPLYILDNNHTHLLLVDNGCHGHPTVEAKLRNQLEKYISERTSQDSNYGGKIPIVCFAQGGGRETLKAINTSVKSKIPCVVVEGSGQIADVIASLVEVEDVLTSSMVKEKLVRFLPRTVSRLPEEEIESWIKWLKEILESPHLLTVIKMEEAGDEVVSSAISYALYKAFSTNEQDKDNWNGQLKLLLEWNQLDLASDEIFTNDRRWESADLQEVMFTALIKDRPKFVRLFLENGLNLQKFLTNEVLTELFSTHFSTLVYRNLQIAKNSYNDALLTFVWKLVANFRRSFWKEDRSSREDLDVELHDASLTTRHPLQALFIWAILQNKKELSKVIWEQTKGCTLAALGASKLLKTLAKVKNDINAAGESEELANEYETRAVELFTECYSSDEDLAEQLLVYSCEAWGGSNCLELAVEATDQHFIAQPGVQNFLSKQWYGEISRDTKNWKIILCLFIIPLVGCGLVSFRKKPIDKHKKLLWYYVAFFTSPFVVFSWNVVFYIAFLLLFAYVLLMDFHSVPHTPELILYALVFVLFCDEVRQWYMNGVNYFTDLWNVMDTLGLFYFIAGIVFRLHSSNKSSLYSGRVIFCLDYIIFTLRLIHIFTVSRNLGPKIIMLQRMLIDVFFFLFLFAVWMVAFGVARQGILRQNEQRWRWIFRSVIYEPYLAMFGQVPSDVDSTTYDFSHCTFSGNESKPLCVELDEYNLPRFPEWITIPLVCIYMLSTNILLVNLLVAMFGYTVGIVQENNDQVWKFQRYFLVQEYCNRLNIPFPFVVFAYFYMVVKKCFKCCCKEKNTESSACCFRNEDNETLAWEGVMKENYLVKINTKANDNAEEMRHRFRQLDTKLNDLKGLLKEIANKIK

% inhibition of Wet-Dog Shake (TRPM8 [3]; dose 10 mg/kg orally)	% inhibition of Wet-Dog Shake (TRPM8 [3]; dose 3 mg/kg orally)	SMILES	response vs control in vivo at 1 mg/kg [2, 4]	response vs control in vivo at 1 mg/kg [2, 5]	other results
–	–	Cc1cccc(COc2ccccc2C(=O)N(CCCN)Cc2cccs2)c1.Cl [AMTB, N-(3-aminopropyl)-2-{[(3-methylphenyl)methyl]oxy}-N-(2-thienylmethyl)benzamide hydrochloride]	–	–	frequency of rhythmic bladder contractions (TRPM8 [1]; anesthetized rats): suppresses; nociceptive reflex responses to bladder distension (TRPM8 [1]; anesthetized rats): suppresses; average blood pressure (TRPM8 [1]; rat, in vivo): decrease
89%	–	NC(=O)[C@@H](c1ccccc1)N(C(=O)c1ccccc1)[C@@H]1CCc2ccc(C3CC3)cc21 [Example 2-5LP, N-[(R)-carbamoylphenylmethyl]-N-[(R)-6-cyclopropylindan-1-yl]benzamide]	177%	–	–
–	69%	NC(=O)[C@@H](c1ccccc1)N(C(=O)c1ccccc1)[C@@H]1CCc2c(F)cc(Cl)cc21 [Example 2-6LP, N-[(R)-carbamoylphenylmethyl]-N-[(R)-6-chloro-4-fluoroindan-1-yl]benzamide]	–	–	response vs control in vivo at 0.3 mg/kg ([2]; 0.3 mg/kg/ml via the femoral vein): 184%
–	56%	NC(=O)[C@@H](c1ccccc1)N(C(=O)c1cccnc1)[C@@H]1CCc2c(F)cc(Cl)cc21 [Example 2-23LP, N-[(R)-carbamoylphenylmethyl]-N-[(R)-6-chloro-4-fluoroindan-1-yl]nicotinamide]	–	205%	–
87%	–	NC(=O)[C@@H](c1ccccc1)N(C(=O)c1cccnc1)[C@@H]1CCc2ccc(Cl)cc21 [Example 2-31LP, N-[(R)-carbamoylphenylmethyl]-N-[(R)-6-chloroindan-1-yl]nicotinamide]	–	176%	–
–	79%	COc1ncccc1C(=O)N([C@@H]1CCc2ccc(Cl)cc21)[C@@H](C(N)=O)c1ccccc1 [Example 2-46LP, N-[(R)-carbamoylphenylmethyl]-N-[(R)-6-chloroindan-1-yl]-2-methoxynicotinamide]	–	186%	–
100%	–	NC(=O)[C@@H](c1cccnc1)N(C(=O)c1ccccc1)[C@@H]1CCc2c(F)cc(Cl)cc21 [Example 2-66LP, N-[(R)-carbamoylpyridin-3-ylmethyl]-N-[(R)-6-chloro-4-fluoroindan-1-yl]benzamide]	–	175%	–
73%	–	NC(=O)[C@@H](c1ccccc1)N(C(=O)c1cncc(F)c1)[C@@H]1CCc2c(F)cc(Cl)cc21 [Example 2-86LP, N-[(R)-carbamoylphenylmethyl]-N-[(R)-6-chloro-4-fluoroindan-1-yl]-5-fluoronicotinamide]	145%	–	–
–	100%	COc1ccccc1C(=O)N([C@@H]1CCc2c(F)cc(Cl)cc21)[C@@H](C(N)=O)c1ccccc1 [Example 2-89LP, N-[(R)-carbamoylphenylmethyl]-N-[(R)-6-chloro-4-fluoroindan-1-yl]-2-methoxybenzamide]	196%	–	–
–	91%	NC(=O)[C@@H](c1ccccc1)N(C(=O)c1cccc2c1OCC2)[C@@H]1CCc2c(F)cc(Cl)cc21 [Example 2-111LP, N-[(R)-carbamoylphenylmethyl]-N-[(R)-6-chloro-4-fluoroindan-1-yl]-2,3-dihydrobenzofuran-7-carboxamide]	–	–	response vs control in vivo at 0.3 mg/kg ([2]; 0.3 mg/kg/2 ml via the femoral vein): 135%
–	100%	Cc1ncccc1C(=O)N([C@@H]1CCc2c(F)cc(F)cc21)[C@@H](C(N)=O)c1ccccc1 [Example 2-131LP, N-[(R)-carbamoylphenylmethyl]-N-[(R)-4,6-difluoroindan-1-yl]-2-methylnicotinamide]	–	162%	–
–	91%	Cc1scnc1C(=O)N([C@@H]1CCc2c(F)cc(Cl)cc21)[C@@H](C(N)=O)c1ccccc1 [Example 2-147LP, N-[(R)-carbamoylphenylmethyl]-N-[(R)-6-chloro-4-fluoroindan-1-yl]-5-methylthiazole-4-carboxamide]	146%	–	–
100%	–	NC(=O)[C@@H](c1ccccc1)N(C(=O)c1ccccc1)[C@@H]1CCc2c(F)cc(F)cc21 [Example 2-221LP, N-[(R)-carbamoylphenylmethyl]-N-[(R)-4,6-difluoroindan-1-yl]benzamide]	154%	–	–
89%	–	NC(=O)[C@@H](c1ccccc1)N(C(=O)c1ccccc1N)[C@@H]1CCc2c(F)cc(F)cc21 [Example 6-1, 2-amino-N-[(R)-carbamoylphenylmethyl]-N-[(R)-4,6-difluoroindan-1-yl]benzamide]	194%	–	–
–	100%	COc1ncccc1C(=O)N([C@@H]1CCc2c(F)cc(Cl)cc21)[C@@H](C(N)=O)c1ccccc1 [Example 11, N-[(R)-carbamoylphenylmethyl]-N-[(R)-6-chloro-4-fluoroindan-1-yl]-2-methoxynicotinamide]	–	162%	–
93%	–	Cc1ncccc1C(=O)N([C@@H]1CCc2c(F)cc(Cl)cc21)[C@@H](C(N)=O)c1cccnc1 [Example 12, N-[(R)-carbamoylpyridin-3-ylmethyl]-N-[(R)-6-chloro-4-fluoroindan-1-yl]-2-methylnicotinamide]	–	142%	–
–	93%	NC(=O)[C@@H](c1ccccc1)N(C(=O)c1cccnc1N)[C@@H]1CCc2c(F)cc(Cl)cc21 [Example 13, 2-amino-N-[(R)-carbamoylphenylmethyl]-N-[(R)-6-chloro-4-fluoroindan-1-yl]nicotinamide]	–	184%	–
–	100%	Cc1ncccc1C(=O)N([C@@H]1CCc2c(F)cc(Cl)cc21)[C@@H](C(N)=O)c1ccccc1 [Example 14LP, N-[(R)-carbamoylphenylmethyl]-N-[(R)-6-chloro-4-fluoroindan-1-yl]-2-methylnicotinamide]	–	181%	–
–	100%	Cc1ncsc1C(=O)N([C@@H]1CCc2c(F)cc(Cl)cc21)[C@@H](C(N)=O)c1ccccc1 [Example 15LP, N-[(R)-carbamoylphenylmethyl]-N-[(R)-6-chloro-4-fluoroindan-1-yl]-4-methylthiazole-5-carboxamide]	–	188%	–

From patent US9458092B2, “α-Substituted glycinamide derivative” (KISSEI PHARMACEUTICAL CO., LTD., priority 2013, dated 2016)
